According to patent US20260207551A1, “PHOSPHOGLICERATE DEHYDROGENASE INHIBITORS FOR THE TREATMENT OF FIBROSIS” (CHIESI FARMACEUTICI S.P.A., priority 2022, published 2026):

Legend:
collagen I (Col-I) = assay: TGF-b induced Collagen I expression in NHLFs (Western blot); format: cell-based, Human; details: NHLF
From the text: (§1) The antifibrotic activity of compounds of the present invention has been monitored measuring the expression of fibrotic mediators, collagen I (Col-I) and alpha smooth muscle actin (α-SMA) after treatment in lung cells with TGF-β in comparison with Nintedanib (see Frank Hilberg et al, Cancer Res 2008 Jun. 15; 68(12):4774-82), and allosteric inhibitor NCT-503 (see Hamanaka et al., Am J Respir Cell Mol Biol. 2018 May; 58(5):585-593).
(§2) Human normal lung fibroblasts (NHLFs) were purchased from Lonza (Basel, Switzerland). NHFLs were cultured in Eagle's Minimum Essential medium (EMEM) w/o serine and glycine, supplemented with 10% Fetal Bovine Serum (FBS), antibiotics (50 U/ml penicillin and 0.05 mg/ml streptomycin) and 2 mM L-glutamine, in an atmosphere of 95% air and 5% CO2 at 37° C. NHLFs cultures were used between passage 1 and 9. Before all the experiments, cells were incubated overnight in serum-free medium.
NHLFs were seeded in 12-well plates at cultured until 70% of confluency. To examine the expression of fibrotic markers, cells were treated with different concentrations of Compounds and NCT-503 in EMEM medium for 1 h followed by stimulation with TGF-β for 48 h at 37° C., 5% CO2. […] Detection and quantification were performed with Odyssey imaging system (Li-cor) using GAPDH as loading control.

[1] = system: alpha smooth muscle actin (α-SMA); assay: TGF-b induced α-SMA expression in NHLFs (Western blot); format: cell-based, Human; details: NHLF, TGF-β (10 ng/ml) 48 h
From the text: as §1, §2
NHLFs were seeded in 12-well plates at cultured until 70% of confluency. To examine the expression of fibrotic markers, cells were treated with different concentrations of Compounds and NCT-503 in EMEM medium for 1 h followed by stimulation with TGF-β for 48 h at 37° C., 5% CO2. Following cell treatments, medium was removed and whole cell extracts were prepared by directly adding to the well the 1× loading buffer (125 mM Tris-HCl pH 6.8, 4% SDS, 0.2% Orange G, 50% glycerol, 2.5% β-mercaptoethanol, Li-cor Biosciences), boiled for 5 min and then electrophoresed on Mini protean TGX gel 4-12% (Biorad). After electrophoresis, proteins were transferred to a nitrocellulose membrane. Immunodetection of Col-I, α-SMA and glyceraldeide 3-phosphate dehydrogenase (GAPDH) were obtained by using mouse anti-CollA1 (Santacruz), mouse anti-α-SMA (sigma) and rabbit anti-GAPDH (Cell Signaling Technology) all diluted at 1:1000 in TBS-tween 0.1%. […] Detection and quantification were performed with Odyssey imaging system (Li-cor) using GAPDH as loading control.

αSMA = assay: Phenotypic assay: high content aSMA staining in NHLF cells; format: cell-based, Human; details: NHLF, 72 h incubation
Method: NHLF cells (Lonza #CC2512) were seeded as 2000 cells/well in 384-well plates in MEM medium w/o serine and glycine (Sigma #M2279)+1% pen/strep+5 mM L-glutamine +10% FBS and incubated overnight at 37° C., 5% CO2.
The next day, cells were washed with PBS and starvation MEM medium w/o serine and glycine (0% FBS) was added and cells were incubated overnight at 37° C., 5% CO2. The day after, cells were pre-incubated with compounds or vehicle (0.3% DMSO) for 1 h. Compounds were tested at 9 consecutive 3-fold dilutions starting from 30 μM. Each compound was tested in duplicate. Cells were further incubated for 72 h at 37° C., 5% CO2, 95% humidity. After 72 h of incubation, αSMA expression was quantified using immunostaining: • Fixation in 4% paraformaldehyde, • Blocking with 3% BSA, 2% FBS, 0.2% Triton-X in PBS, • Primary ab. anti-αSMA (AbCam #ab7817) diluted 500× in blocking buffer • Anti-mouse secondary ab. AF488 (ThermoFisher #A11029) • % of αSMA positive cells was determined by High Content Imaging (Molecular Device), data analysis was performed using MetaXpress software (Molecular Devices) and % of αSMA positive was further used to calculate % of inhibition for tested compounds. Total cell number was determined by Hoechst staining and % of viability over TGFβ stimulated controls was calculated.

[2] = Plasma exposure after the last dose in bleomycin model (Example 5); format: in vivo, Male C57BL6/J mice; details: 0.5 h, 2 h and 7 h
Method: The Bioanalysis of Compound 19 in plasma was carried out under the same experimental conditions as reported in Example 3.
Plasma exposure of Compound 19 was determined following the last oral dose at three timepoints (0.5 h, 2 h and 7 h).

[3] = system: bleomycin-induced pulmonary fibrosis; assay: Bleomycin-induced pulmonary fibrosis in male mice (Example 5)
Method: Male C57BL6/J mice (7-8 weeks old) were purchased from the Envigo RMS (San Pietro al Natisone (UD), Italy). All mice were maintained under pathogen-free conditions and were provided food and water ad libitum.
Lung injury was induced by double oropharyngeal instillation of Bleomycin hydrochloride (BLM, BAXTER) at day 0 and day 4 at the doses of 0.02 U/mouse in 50 μl of saline solution (0.9%). Control animals received double oropharyngeal instillation of 50 μl of saline solution.
Compound 19 was orally administered twice daily, starting on day 7 after the first oropharyngeal administration of bleomycin at the two doses of 400 and 600 mg/kg/day, 10 ml/kg, dissolved in 0.5% Tween 80, 0.5% Methylcellulose in H2O and treatment lasted for two weeks.
A group of animals was treated with Nintedanib esylate salt, at the dose of 60 mg/kg/day, 10 ml/kg, once daily, to compare the efficacy of the test compounds with an FDA approved drug for the treatment of IPF patients. Control mice were given vehicle-only over the same time intervals. Weight of all animals has been assessed twice a week starting from day 0 until day 21.
On days 21, mice were anesthetized by intraperitoneal injection of thiopental (200 mg/kg/10 ml; pentothal sodium, MSD Animal Health Srl). Blood was withdrawn by cardiac puncture and collected in heparine tubes. Plasma was obtained after centrifugation of blood at 10,000 g for 10 min. Lungs were lavage with saline solution through the heart, formalin fixed and paraffin embedded, and sections were stained with Masson's Trichrome to evaluate the grade and severity of fibrosis and collagen deposition.
Masson's Trichrome stained slides were also scanned with NanoZoomer S60 (Hamamatsu Photonics K.K., Shizuoka, Japan) and acquired into the Visiopharm Integrator System (VIS; version 2017.2.4.3387) for a quantification of pulmonary fibrosis by automated analysis with the support of a VIS Analysis Protocol Package (APP). The present APP has been designed to identify and then quantify the fibrotic tissue, detecting accumulation of altered connective tissue, excess of collagen deposition and cellular density.
To quantify lung protein content and the levels of specific proteins as markers of fibrosis and collagen deposition, lungs from subgroups of animals were weighted, homogenized in Phosphate buffer solution (PBS) and proteins of interest were quantified by immunometric or colorimetric assays. Hydroxyproline content was determined using the Hydroxyproline Colorimetric Assay Kit (Sigma MAK008, USA) according to the manufacturer's protocol. WISP-1, CollagenI, pro-CollagenI and Elastin were determined by Elisa kits. Protein quantification was performed using DC Protein Assay (Bio-Rad Laboratories, Italy). Plasma serine levels were measured using the DL-Serine Assay Kit (Abcam, Cambridge, MA).

CC(C)C(C(=O)O)c1ccc(C2(NC(=O)c3cc4c(Cl)c(Cl)ccc4n3C)CCOC2)cc1 (racemic) [Compound 19, (±)-2-(4-(3-(4,5-Dichloro-1-methyl-1H-indole-2-carboxamido)tetrahydro-furan-3-yl)phenyl)-3-methylbutanoic acid]
IC50 (collagen I (Col-I); Homo sapiens, TGF-β 48 h, confidence interval in brackets, read-out: TGF-b induced Collagen I (pIC50-C.I.) (converted)): 31.6 nM
FMT induced by TGF-β, Collagen protein expression (FIG. 1) (collagen I (Col-I)): decrease of Collagen protein expression
inhibition of release of α-SMA (comparison, FIG. 2) ([1]; Compound 19 50 uM vs NCT-503 50 uM and Nintedanib 1 uM): in a more efficacious manner than the NCT-503 (50 uM) and even more than the Nintedanib (1 uM)
inhibition at 50 µM ([1]; Homo sapiens, 50 uM, read-out: TGF-b induced a-sma (% inh. 50 uM)): 97%
aSMA pIC50 (αSMA): 5.9
plasma exposure following the last oral dose [2]: good oral exposure
circulating serine levels in plasma ([3]; 400 and 600 mg/kg/day): significant reduction at both doses
reduction of lung/body weight ([3]; Compound 19 highest dose (600 mg/kg/day), Nintedanib esylate 60 mg/kg/day, not significant): −31%
body weight during 2-weeks of treatment ([3]; compared to BLM/Vehicle treated group): did not lose additional weight
Ashcroft score (FIG. 11A) ([3]; day 21): reduced
collagen content (automatic collagen deposition quantification, FIG. 13) ([3]; day 21): reached statistical significance with the highest dose
frequency of Ashcroft score classes (FIG. 11B) ([3]; day 21): reduced the frequency of the most severe scores of fibrosis
reduction of tissue area occupied by fibrotic lesions (automated analysis) ([3]; day 21): ~25%
severity of fibrosis (automated analysis, FIG. 12) ([3]; day 21): significant reduction of severity of fibrosis
deaths during treatment ([3]; highest tested dose (600 mg/kg/day), two animals died in BLM/Vehicle group): only one animal died
lung levels of Hydroxyproline, Collagen I and WISP-1 ([3]; lung homogenates): significantly reduced
